Experiments:
human H4 = target: T1, human H4 (Homo sapiens, UniProt Q9H3N8); test: In vitro histamine receptor cell-based assay (aequorin bioluminescence), H4 antagonism; conditions: CHO-K1 cells expressing human H4, aequorin and Gα16; histamine at EC80; read-out: H4 Antagonist EC50
T1 construct: host or cells: CHO-K1
Description: (§1) The cell-based assays utilize an aequorin dependent bioluminescence signal. Doubly-transfected, stable CHO-K1 cell lines expressing human H1 or H4, mitochondrion-targeted aequorin, and (H4 only) human G protein Gα16 are obtained from Perkin-Elmer. Cells are maintained in F12 (Ham's) growth medium, containing 10% (vol./vol.) fetal bovine serum, penicillin (100 IU/mL), streptomycin (0.1 mg/mL), zeocin (0.25 mg/mL) and geneticin (0.40 mg/mL). Cell media components are from Invitrogen, Inc. One day prior to assay, the growth medium is replaced with the same, excluding zeocin and geneticin.
(§2) For assay preparation, growth medium is aspirated, and cells are rinsed with calcium-free, magnesium-free phosphate-buffered saline, followed by two to three minute incubation in Versene (Invitrogen, Inc.) at 37° C. Assay medium (DMEM:F12 [50:50], phenol-red free, containing 1 mg/mL protease-free bovine serum albumin) is added to collect the released cells, which are then centrifuged. The cell pellet is re-suspended in assay medium, centrifuged once more, and re-suspended in assay medium to a final density of 5×10^6 cells/mL. Coelenterazine-h dye (500 μM in ethanol) is added to a final concentration of 5 μM, and mixed immediately. The conical tube containing the cells is then wrapped with foil to protect the light-sensitive dye. The cells are incubated for four hours further at room temperature (approximately 21° C.) with end-over-end rotation to keep them in suspension.
Just before assay, the dye-loaded cells are diluted to 0.75×10^6 cells/mL (H1 receptor) or 1.5×10^6 cells/mL (H4 receptor) with additional assay medium. Cells are dispensed to 1536 well micro-titer plates at 3 μL/well. To assay receptor antagonism, 60 nl of 100× concentration test compounds in 100% dimethyl sulfoxide (DMSO) are dispensed to the wells, one compound per well, by passive pin transfer, and the plates are incubated for 15 minutes at room temperature. […] The pipette dispenses 3 μL/well of agonist (histamine, at twice the final concentration, where final concentration is a previously determined EC80) in assay medium, with concurrent bioluminescence detection. Agonist activity of test compounds is excluded by separate assays that measure response to test compounds immediately, without added histamine agonist.
(§3) CCD image capture on the Lumilux includes a 5 second baseline read prior to agonist addition, and generally a 40 second read per plate after agonist addition. A decrease in bioluminescence signal (measured either as area-under-the-curve, or maximum signal amplitude minus minimum signal amplitude) correlates with receptor antagonism in a dose dependent manner. The negative control is DMSO lacking any test compound. For antagonist assays, the positive controls are diphenhydramine (2-Diphenylmethoxy-N,N-dimethylethylamine, 10 μM final concentration, H1 receptor) or JNJ7777120 (1-[(5-Chloro-1H-indol-2-yl)carbonyl]-4-methyl-piperazine, 10 μM final concentration, H4 receptor). Efficacy is measured as a percentage of positive control activity.

human H1 = target: T2, human H1 (Homo sapiens, UniProt P35367); test: In vitro histamine receptor cell-based assay (aequorin bioluminescence), H1 antagonism; conditions: CHO-K1 cells expressing human H1 and aequorin; histamine at EC80; read-out: H1 Antagonist EC50
T2 construct: host or cells: CHO-K1
T2 sequence (P35367 whole entry): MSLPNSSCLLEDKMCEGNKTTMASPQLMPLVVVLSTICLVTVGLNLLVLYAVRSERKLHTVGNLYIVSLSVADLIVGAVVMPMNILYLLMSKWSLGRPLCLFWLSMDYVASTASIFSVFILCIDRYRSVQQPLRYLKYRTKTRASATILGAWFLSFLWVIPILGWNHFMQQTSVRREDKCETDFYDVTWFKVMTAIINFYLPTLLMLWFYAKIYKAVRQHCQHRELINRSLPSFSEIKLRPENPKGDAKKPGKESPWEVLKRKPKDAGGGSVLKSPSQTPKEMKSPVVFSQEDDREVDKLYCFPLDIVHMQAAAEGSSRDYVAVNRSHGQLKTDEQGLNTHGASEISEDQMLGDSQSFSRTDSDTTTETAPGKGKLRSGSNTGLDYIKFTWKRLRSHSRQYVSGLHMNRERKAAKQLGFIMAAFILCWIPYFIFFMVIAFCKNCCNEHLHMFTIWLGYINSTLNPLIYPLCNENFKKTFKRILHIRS
Description: as §1, §2
Just before assay, the dye-loaded cells are diluted to 0.75×10^6 cells/mL (H1 receptor) or 1.5×10^6 cells/mL (H4 receptor) with additional assay medium. Cells are dispensed to 1536 well micro-titer plates at 3 μL/well. To assay receptor antagonism, 60 nl of 100× concentration test compounds in 100% dimethyl sulfoxide (DMSO) are dispensed to the wells, one compound per well, by passive pin transfer, and the plates are incubated for 15 minutes at room temperature. Assay plates are then transferred to a Lumilux bioluminescence plate reader (Perkin-Elmer) equipped with an automated 1536 disposable tip pipette. The pipette dispenses 3 μL/well of agonist (histamine, at twice the final concentration, where final concentration is a previously determined EC80) in assay medium, with concurrent bioluminescence detection. Agonist activity of test compounds is excluded by separate assays that measure response to test compounds immediately, without added histamine agonist.
as §3

| SMILES | EC50 (human H4) | EC50 (human H1) |
| --- | --- | --- |
| CC(C)(C)OC(=O)N1CCN(c2nc3ccc(Cl)cc3n3cnnc23)CC1 [Example 56, tert-butyl 4-(8-chloro-[1,2,4]triazolo[4,3-a]quinoxalin-4-yl)piperazine-1-carboxylate] | > 10 µM | > 10 µM |
| Clc1ccc2nc(N3CC4CNCC4C3)c3nncn3c2c1 (centres unmarked) [Example 69, 8-chloro-4-(hexahydropyrrolo[3,4-c]pyrrol-2(1H)-yl)-[1,2,4]triazolo[4,3-a]quinoxaline] | > 10 µM | > 10 µM |
| NCCNc1nc2ccc(Cl)cc2n2cnnc12 [Example 70, N^1-(8-chloro-[1,2,4]triazolo[4,3-a]quinoxalin-4-yl)ethane-1,2-diamine] | > 10 µM | > 10 µM |
| Clc1ccc2nc(NCCN3CCOCC3)c3nncn3c2c1 [Example 71, 8-chloro-N-(2-morpholinoethyl)-[1,2,4]triazolo[4,3-a]quinoxalin-4-amine] | > 10 µM | > 10 µM |
| Clc1ccc2nc(OC3CNC3)c3nncn3c2c1 [Example 72, 4-(azetidin-3-yloxy)-8-chloro-[1,2,4]triazolo[4,3-a]quinoxaline] | > 10 µM | > 10 µM |
| Clc1ccc2nc(NC3CCNCC3)c3nncn3c2c1 [Example 73, 8-chloro-N-(piperidin-4-yl)-[1,2,4]triazolo[4,3-a]quinoxalin-4-amine] | > 10 µM | > 10 µM |
| Clc1ccc2nc(OC3CCNCC3)c3nncn3c2c1 [Example 74, 8-chloro-4-(piperidin-4-yloxy)-[1,2,4]triazolo[4,3-a]quinoxaline] | > 10 µM | > 10 µM |
| Clc1ccc2nc(OCC3CNC3)c3nncn3c2c1 [Example 75, 4-(azetidin-3-ylmethoxy)-8-chloro-[1,2,4]triazolo[4,3-a]quinoxaline] | > 10 µM | > 10 µM |
| CN1CC[C@H](COc2nc3ccc(Cl)cc3n3cnnc23)C1 [Example 76, (S)-8-chloro-4-((1-methylpyrrolidin-3-yl)methoxy)-[1,2,4]triazolo[4,3-a]quinoxaline] | > 10 µM | > 10 µM |
| CNCCN(C)c1nc2ccc(Cl)cc2n2cnnc12 [Example 77, N^1-(8-chloro-[1,2,4]triazolo[4,3-a]quinoxalin-4-yl)-N^1,N^2-dimethylethane-1,2-diamine] | > 10 µM | > 10 µM |
| CN(C)CCN(C)c1nc2ccc(Cl)cc2n2cnnc12 [Example 78, N^1-(8-chloro-[1,2,4]triazolo[4,3-a]quinoxalin-4-yl)-N^1,N^2,N^2-trimethylethane-1,2-diamine] | > 10 µM | > 10 µM |
| CN(CCN)c1nc2ccc(Cl)cc2n2cnnc12 [Example 79, N^1-(8-chloro-[1,2,4]triazolo[4,3-a]quinoxalin-4-yl)-N-1-methylethane-1,2-diamine] | > 10 µM | > 10 µM |
| CNCCOc1nc2ccc(Cl)cc2n2cnnc12 [Example 80, 2-(8-chloro-[1,2,4]triazolo[4,3-a]quinoxalin-4-yloxy)-N-methylethanamine] | > 10 µM | > 10 µM |
| NC1CCN(c2nc3ccc(Cl)cc3n3cnnc23)CC1 [Example 81, 1-(8-chloro-[1,2,4]triazolo[4,3-a]quinoxalin-4-yl)piperidin-4-amine] | > 10 µM | > 10 µM |

Now from value to compound:

| EC50 (human H4) | EC50 (human H1) | SMILES |
| --- | --- | --- |
| < 10 µM | > 10 µM | CN1CCN(c2nc3cc(C(F)(F)F)c(Cl)cc3n3cnnc23)CC1 [Example 46, 8-Chloro-4-(4-methylpiperazin-1-yl)-7-(trifluoromethyl)-[1,2,4]triazolo[4,3-a]quinoxaline] |
| < 10 µM | > 10 µM | FC(F)(F)c1cc2nc(N3CCNCC3)c3nncn3c2cc1Cl [Example 47, 8-Chloro-4-(piperazin-1-yl)-7-(trifluoromethyl)-[1,2,4]triazolo[4,3-a]quinoxaline] |
| < 10 µM | > 10 µM | CN1CCN(c2nc3c(F)cc(C(F)(F)F)cc3n3cnnc23)CC1 [Example 48, 6-Fluoro-4-(4-methylpiperazin-1-yl)-8-(trifluoromethyl)-[1,2,4]triazolo[4,3-a]quinoxaline] |
| < 10 µM | > 10 µM | CN1CCN(c2nc3ccc(OC(F)(F)F)cc3n3cnnc23)CC1 [Example 50, 4-(4-methylpiperazin-1-yl)-8-(trifluoromethoxy)-[1,2,4]triazolo[4,3-a]quinoxaline] |
| < 10 µM | > 10 µM | FC(F)(F)Oc1ccc2nc(N3CCNCC3)c3nncn3c2c1 [Example 51, 4-(piperazin-1-yl)-8-(trifluoromethoxy)-[1,2,4]triazolo[4,3-a]quinoxaline] |
| > 10 µM | > 10 µM | Brc1ccc2c(c1)nc(N1CCNCC1)c1nncn12 [Example 53, 7-bromo-4-(piperazin-1-yl)-[1,2,4]triazolo[4,3-a]quinoxaline] |
| < 10 µM | > 10 µM | CN1CCN(c2nc3ccccc3n3cnnc23)CC1 [Example 58, 4-(4-methylpiperazin-1-yl)-[1,2,4]triazolo[4,3-a]quinoxaline] |
| < 10 µM | > 10 µM | NC1CCN(c2nc3ccc(Cl)cc3n3cnnc23)C1 (centres unmarked) [Example 59, 1-(8-chloro-[1,2,4]triazolo[4,3-a]quinoxalin-4-yl)pyrrolidin-3-amine] |
| < 10 µM | > 10 µM | CNC1CCN(c2nc3ccc(Cl)cc3n3cnnc23)C1 (centres unmarked) [Example 60, 1-(8-chloro-[1,2,4]triazolo[4,3-a]quinoxalin-4-yl)-N-methylpyrrolidin-3-amine] |
| < 10 µM | > 10 µM | Clc1ccc2nc(N3CC4CCCNC4C3)c3nncn3c2c1 (centres unmarked) [Example 61, 8-chloro-4-(tetrahydro-1H-pyrrolo[3,4-b]pyridin-6(2H,7H,7aH)-yl)-[1,2,4]triazolo[4,3-a]quinoxaline] |
| < 10 µM | > 10 µM | CN1CC2CN(c3nc4ccc(Cl)cc4n4cnnc34)CC2C1 (centres unmarked) [Example 62, 8-chloro-4-(5-methylhexahydropyrrolo[3,4-c]pyrrol-2(1H)-yl)-[1,2,4]triazolo[4,3-a]quinoxaline] |
| < 10 µM | > 10 µM | NC1CN(c2nc3ccc(Cl)cc3n3cnnc23)C1 [Example 63, 1-(8-chloro-[1,2,4]triazolo[4,3-a]quinoxalin-4-yl)azetidin-3-amine] |
| < 10 µM | > 10 µM | Clc1ccc2nc(N3CCN(C4CC4)CC3)c3nncn3c2c1 [Example 64, 8-chloro-4-(4-cyclopropylpiperazin-1-yl)-[1,2,4]triazolo[4,3-a]quinoxaline] |
| < 10 µM | > 10 µM | Clc1ccc2nc(N3CCN4CCCC4C3)c3nncn3c2c1 (centres unmarked) [Example 65, 8-chloro-4-(hexahydropyrrolo[1,2-a]pyrazin-2(1H)-yl)-[1,2,4]triazolo[4,3-a]quinoxaline] |
| < 10 µM | > 10 µM | Clc1ccc2nc(N3CC4CC3CN4)c3nncn3c2c1 (centres unmarked) [Example 67, 4-(2,5-diazabicyclo[2.2.1]heptan-2-yl)-8-chloro-[1,2,4]triazolo[4,3-a]quinoxaline] |
| < 10 µM | > 10 µM | CN1CCCN(c2nc3ccc(Cl)cc3n3cnnc23)CC1 [Example 68, 8-chloro-4-(4-methyl-1,4-diazepan-1-yl)-[1,2,4]triazolo[4,3-a]quinoxaline] |
| < 10 µM | > 10 µM | CC1(C)CN(c2nc3ccc(Cl)cc3n3cnnc23)CCN1 [Example 82, 8-chloro-4-(3,3-dimethylpiperazin-1-yl)-[1,2,4]triazolo[4,3-a]quinoxaline] |
